{"source": "patent US20140066365A1", "about": "“USE OF CALIXARENES ASSOCIATED WITH AN ANTIBIOTIC IN THE TREATMENT OF BACTERIAL INFECTIONS” (priority 2011, published 2014)", "key": {"[1]": {"system": "SaR1: Meticillin-Resistant Staphylococcus aureus without Associated Resistance", "test": "Antibiogram, MIC by the VITEK 2 system", "type": "cell-based", "details": "SaR1", "description": "(§1) The bacterial and antibiogramidentification is carried out by the VITEK 2 system (bioMérieux)"}, "[2]": {"system": "PaR3: Pseudomonas aeruginosa", "test": "Antibiogram, MIC by the VITEK 2 system", "type": "cell-based", "description": "as §1"}, "[3]": {"system": "EcR2: Cephalosporinase-Hyperproducing Strain of Escherichia coli", "test": "Antibiogram by the disk diffusion technique", "type": "cell-based", "description": "The bacterial and antibiogramidentification is carried out by the VITEK 1 system (bioMérieux) and by the disk diffusion technique"}, "[4]": {"system": "SaR4: Meticillin-Resistant Staphylococcus aureus", "test": "Antibiogram by the disk diffusion technique", "type": "cell-based", "description": "(§2) The bacterial and antibiogramidentification is carried out by the VITEK 2 system (bioMérieux) and by the disk diffusion technique"}, "[5]": {"system": "PaR5: Pseudomonas aeruginosa", "test": "Antibiogram by the disk diffusion technique", "type": "cell-based", "description": "as §2"}, "[6]": {"system": "SaR3: Meticillin-Resistant Staphylococcus aureus", "test": "Antibiogram by the disk diffusion technique", "type": "cell-based", "description": "as §2"}, "[7]": {"system": "EcR1: Penicillinase-Producing Escherichia coli without Associated Resistance", "test": "Antibiogram by the disk diffusion technique", "type": "cell-based", "details": "Table A1", "description": "(§3) 5.1 EcR1: Penicillinase-Producing Escherichia coli without Associated Resistance The bacterial and antibiogramidentification is carried out by the VITEK 2 system (bioMérieux) and by the disk diffusion technique."}, "[8]": {"system": "ESBL-producing strain of Escherichia coli, having an associated resistance to the aminoglycosides (EcR3)", "test": "MIC of the compounds used alone, microdilution in a liquid medium (CLSI)", "type": "cell-based", "details": "antibiotic alone (second value of cell)", "source_text": "(§4) The MICs of the antibiotics were previously defined for each strain, by the method of microdilution in a liquid medium (CLSI (Clinical and Laboratory Standards Institute), 2003)."}, "[9]": {"system": "Staphylococcus aureus strain ATCC 29213 (wild type)", "test": "MIC of the compounds used alone, microdilution in a liquid medium (CLSI)", "type": "cell-based", "details": "antibiotic alone (second value of cell); S. aureus ATCC 29213", "source_text": "as §4"}, "[10]": {"system": "Escherichia coli strain ATCC 25922 (wild type)", "test": "MIC of the compounds used alone, microdilution in a liquid medium (CLSI)", "type": "cell-based", "details": "antibiotic alone (second value of cell); E. coli ATCC 25922", "source_text": "as §4"}, "[11]": {"system": "cephalosporinase-hyperproducing strain of Escherichia coli (EcR2)", "test": "MIC of the compounds used alone, microdilution in a liquid medium (CLSI)", "type": "cell-based", "details": "antibiotic alone (second value of cell)", "source_text": "as §4"}, "[12]": {"system": "penicillinase-producing strain of Escherichia coli without associated resistance (EcR1)", "test": "MIC of the compounds used alone, microdilution in a liquid medium (CLSI)", "type": "cell-based", "details": "antibiotic alone (second value of cell)", "source_text": "as §4"}, "[13]": {"system": "EcR1: Penicillinase-Producing Escherichia coli without Associated Resistance", "test": "Antibiogram, MIC by the VITEK 2 system", "type": "cell-based", "description": "as §3"}, "[14]": {"system": "EcR3: ESBL-Producing Escherichia coli", "test": "Antibiogram by the disk diffusion technique", "type": "cell-based", "description": "The bacterial and antibiogramidentification is carried out by the VITEK 2 system (bioMerieux) and by the disk diffusion technique"}, "[15]": {"system": "PaR2: Pseudomonas aeruginosa", "type": "cell-based", "description": "as §2"}, "[16]": {"system": "MRSA strain without associated resistance (SaR1)", "test": "MIC of the compounds used alone, microdilution in a liquid medium (CLSI)", "type": "cell-based, Staphylococcus aureus", "details": "antibiotic alone (second value of cell); SaR1", "source_text": "as §4"}, "[17]": {"system": "MRSA strain having a resistance to the aminoglycosides and fluoroquinolones (SaR3)", "test": "MIC of the compounds used alone, microdilution in a liquid medium (CLSI)", "type": "cell-based, Staphylococcus aureus", "details": "antibiotic alone (second value of cell); SaR3", "source_text": "as §4"}, "[18]": {"system": "MRSA strain having a resistance to the aminoglycosides, fluoroquinolones, macrolides-lincosamides-synergistins and ofloxacin (SaR4)", "test": "MIC of the compounds used alone, microdilution in a liquid medium (CLSI)", "type": "cell-based, Staphylococcus aureus", "details": "antibiotic alone (second value of cell); SaR4", "source_text": "as §4"}, "[19]": {"system": "Escherichia coli, Staphylococcus aureus and Pseudomonas aeruginosa strains", "test": "Chessboard technique, summary statements over all strains and combinations tested", "type": "cell-based", "details": "strain not stated", "summary_of_the_method": "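Checkerboard of 64 antibiotic/Cx1 concentration combinations per strain. FIC index classed as synergy (≤0.5), additive (>0.5–1), indifferent (>1–4) or antagonism (>4). Each strain and combination tested at least 3 times.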"}, "[20]": {"system": "SaR1: Meticillin-Resistant Staphylococcus aureus without Associated Resistance", "test": "Antibiogram, inhibition diameter (Table D1)", "type": "cell-based", "description": "as §1"}}, "data": [{"substance": "Gentamicin", "values": [{"measurement": "CA-SFM Interpretation", "setting": "[1]; Cc CA-SFM 2011", "result": "Susceptible"}, {"measurement": "CLSI Interpretation", "setting": "[1]; Cc CLSI 2011", "result": "Susceptible"}, {"measurement": "EUCAST Interpretation", "setting": "[1]; Cc EUCAST 2011", "result": "Susceptible"}, {"measurement": "MIC mg/L", "setting": "[1]; Table D1", "result": "≦0.5 mg/L"}, {"measurement": "Results", "setting": "[1]; Table D1, from MIC", "result": "Susceptible"}, {"measurement": "MIC mg/L", "setting": "[1]; Table D2", "result": "≦0.5 mg/L"}, {"measurement": "CA-SFM Interpretation", "setting": "[2]; Cc CA-SFM 2011", "result": "Resistant"}, {"measurement": "CLSI Interpretation", "setting": "[2]; Cc CLSI 2011", "result": "Resistant"}, {"measurement": "EUCAST Interpretation", "setting": "[2]; Cc EUCAST 2011", "result": "Resistant"}, {"measurement": "MIC", "setting": "[2]; Table H1", "result": "≧16"}, {"measurement": "Results", "setting": "[2]; Table H1", "result": "Resistant"}, {"measurement": "MIC mg/L", "setting": "[2]; Table H2", "result": "≧16 mg/L"}, {"measurement": "Diameter", "setting": "[3]; EcR2, disk diffusion, Table B1", "result": 12}, {"measurement": "Results", "setting": "[3]; EcR2, rows that print a diameter, Table B1", "result": "Resistant"}, {"measurement": "Diameter", "setting": "[3]; EcR2, Table B2, diameters", "result": 12, "unit": "mm"}, {"measurement": "CA-SFM Interpretation", "setting": "[3]; EcR2, from diameter, CA-SFM 2011", "result": "Resistant"}, {"measurement": "CLSI Interpretation", "setting": "[3]; EcR2, from diameter, CLSI 2011", "result": "Resistant"}, {"measurement": "EUCAST Interpretation", "setting": "[3]; EcR2, from diameter, EUCAST 2011", "result": "Resistant"}, {"measurement": "Diameter", "setting": "[4]; Table F1", "result": 21}, {"measurement": "Results", "setting": "[4]; Table F1, rows with a diameter", "result": "Susceptible"}, {"measurement": "Diameter", "setting": "[4]; Table F2, diameters", "result": 21, "unit": "mm"}, {"measurement": "CA-SFM Interpretation", "setting": "[4]; from diameter, CA-SFM 2011", "result": "Susceptible"}, {"measurement": "CLSI Interpretation", "setting": "[4]; from diameter, CLSI 2011", "result": "Susceptible"}, {"measurement": "EUCAST Interpretation", "setting": "[4]; from diameter, EUCAST 2011", "result": "Susceptible"}, {"measurement": "Diameter", "setting": "[5]; PaR5, Table I1", "result": 25, "unit": "mm"}, {"measurement": "Results", "setting": "[5]; PaR5, Table I1, against Dmin-Dmax", "result": "Susceptible"}, {"measurement": "diameter in mm", "setting": "[5]; disk diffusion inhibition diameter, strain PaR5", "result": 25, "unit": "mm"}, {"measurement": "CA-SFM Interpretation", "setting": "[5]; disk diffusion, PaR5, versus critical diameter CA-SFM 2011", "result": "Susceptible"}, {"measurement": "CLSI Interpretation", "setting": "[5]; disk diffusion, PaR5, versus critical diameter CLSI 2011", "result": "Susceptible"}, {"measurement": "EUCAST Interpretation", "setting": "[5]; disk diffusion, PaR5, versus critical diameter EUCAST 2011, for ** antibiotics the disk load differs and the EUCAST interpretation is not applicable", "result": "Susceptible"}, {"measurement": "CA-SFM Interpretation", "setting": "[6]; Cd CA-SFM 2011", "result": "Susceptible"}, {"measurement": "CLSI Interpretation", "setting": "[6]; Cd CLSI 2011", "result": "Susceptible"}, {"measurement": "EUCAST Interpretation", "setting": "[6]; Cd EUCAST 2011", "result": "Susceptible"}, {"measurement": "Diameter", "setting": "[6]; Table E1", "result": 20, "unit": "mm"}, {"measurement": "Results", "setting": "[6]; Table E1, against Dmin Dmax", "result": "Susceptible"}, {"measurement": "diameter in mm", "setting": "[6]; Table E2", "result": 20, "unit": "mm"}, {"measurement": "Diameter", "setting": "[7]; EcR1, disk diffusion", "result": 20, "unit": "mm"}, {"measurement": "Results", "setting": "[7]; EcR1, interpretation of the diameter against Dmin Dmax", "result": "Susceptible"}, {"measurement": "Initial MICs (mg/L)", "setting": "[8]", "result": "2/2 mg/L"}, {"measurement": "Initial MICs", "setting": "[9]", "result": 0.25, "unit": "mg/L"}, {"measurement": "Initial MICs", "setting": "[10]", "result": 0.125, "unit": "mg/L"}, {"measurement": "Initial MICs (mg/L)", "setting": "[11]", "result": "2/2 mg/L"}, {"measurement": "Initial MICs", "setting": "[12]", "result": 0.125, "unit": "mg/L"}, {"measurement": "CA-SFM Interpretation", "setting": "[13]; EcR1, MIC against Cc CA-SFM 2011", "result": "Susceptible"}, {"measurement": "CLSI Interpretation", "setting": "[13]; EcR1, MIC against Cc CLSI 2011", "result": "Susceptible"}, {"measurement": "EUCAST Interpretation", "setting": "[13]; EcR1, MIC against Cc EUCAST 2011", "result": "Susceptible"}, {"measurement": "MIC mg/L (diameter in mm)", "setting": "[13]; EcR1, Table A2", "result": "≦1 mg/L"}, {"measurement": "MIC mg/L", "setting": "[13]; EcR1, VITEK 2, Table A1", "result": "≦1 mg/L"}, {"measurement": "Results", "setting": "[13]; EcR1, interpretation of the MIC, Table A1", "result": "Susceptible"}, {"measurement": "CA-SFM Interpretation", "setting": "[14]; Cd CA-SFM 2011", "result": "Resistant"}, {"measurement": "CLSI Interpretation", "setting": "[14]; Cd CLSI 2011", "result": "Intermediate"}, {"measurement": "EUCAST Interpretation", "setting": "[14]; Cd EUCAST 2011", "result": "Resistant"}, {"measurement": "Diameter", "setting": "[14]; Table C1", "result": 12, "unit": "mm"}, {"measurement": "Results", "setting": "[14]; Table C1, against Dmin Dmax", "result": "Resistant"}, {"measurement": "diameter in mm", "setting": "[14]; Table C2", "result": 12, "unit": "mm"}, {"measurement": "CA-SFM Interpretation", "setting": "[15]; Cd CA-SFM 2011", "result": "Susceptible"}, {"measurement": "CLSI Interpretation", "setting": "[15]; Cd CLSI 2011", "result": "Susceptible"}, {"measurement": "EUCAST Interpretation", "setting": "[15]; Cd EUCAST 2011", "result": "Susceptible"}, {"measurement": "Diameter", "setting": "[15]; Table G1", "result": 21, "unit": "mm"}, {"measurement": "Results", "setting": "[15]; Table G1, against Dmin-Dmax", "result": "Susceptible"}, {"measurement": "diameter in mm", "setting": "[15]; Table G2", "result": 21, "unit": "mm"}, {"measurement": "MIC", "setting": "[16]", "result": 0.25, "unit": "µg/mL"}, {"measurement": "MIC", "setting": "[17]", "result": 0.125, "unit": "µg/mL"}, {"measurement": "MIC", "setting": "[18]", "result": 0.25, "unit": "µg/mL"}, {"measurement": "interaction between the antibiotic and Cx1", "setting": "[19]", "result": "synergism"}, {"measurement": "Diameter", "setting": "[20]", "result": 23, "unit": "mm"}, {"measurement": "Results", "setting": "[20]; from diameter, against Dmin Dmax", "result": "Susceptible"}]}]}
